Experimental data as given in patent US20070167488A1, “Novel therapeutic use” (Leo Pharma A/S, priority 2003, published 2007).

Test system: IL-2
Test: Inhibition of IL-2 production in phytohemagglutinin-activated human PBMCs (sandwich ELISA)
Assay type: cell-based
Settings: approximately 46 hours; for IC50: Homo sapiens, PBMC, 46 h, read-out: IL-2 pIC50 (converted)
Description: Peripheral blood mononuclear cells (PBMCs) were isolated from human blood. The lymphocytes, a fraction of the PBMCs, were activated to secrete IL-2 using the polyclonal mitogen phytohemagglutinin. The test compounds were added in concentrations from 10^−5 to 10^−10, and the cells (10^6/ml) were incubated in microtiter wells at 37° C. for approximately 46 hours.
After 46 hours the cells were centrifuged down for 25 minutes at 1000×g and the supernatants were transferred to transferred to microtiter wells precoated with a monoclonal antibody against human IL-2. The IL-2 concentration in the supernatants was determined by a sandwich ELISA. Microtiter plates were coated (1 μg/ml) with a monoclonal antibody (R&D, UK) against human IL-2, washed 4 times, blocked with 1% casein buffer for 2 hours and washed 2 times. 100 μl sample was added to each well and incubated overnight. All samples were tested in triplicate. 100 μl IL-2 standards (R&D, UK) at a concentration range of 10000-0 pg/ml were tested in triplicate. After incubation the plates were washed and incubated with biotinylated polyclonal secondary antibody against human IL-2 (R&D, UK) for 45 minutes and thereafter washed 4 times. 100 μl enzyme conjugate, horseradish peroxidase conjugated streptavidin diluted 1:4000 (Zymed, USA), was added to all wells and incubated for 30 minutes. 100 μl OPD substrate (KEM EN TEC-DK) was added and the enzyme/substrate reaction stopped after 10 minutes at room temperature with 50 μl 1 M H2SO4. The colour development (optical density—OD) was determined at 492 nm on an ELISA reader and the background OD at 620 nm subtracted).

Structure (SMILES)	IC50 [nM]	IL-2 pIC50
O=C1Nc2ccccc2/C1=C/c1c[nH]c2cc(F)ccc12	1	–
COc1ccc2c(c1)/C(=C/c1c[nH]c3ccccc13)C(=O)N2	31.6	–
Cc1ccc2[nH]cc(/C=C3/C(=O)Nc4ccccc43)c2c1	20	–
COc1ccc(OC)c(/C=C2\C(=O)N(OC)c3ccccc32)c1	20	–
O=C1Nc2ccccc2/C1=C\c1ccc(O)cc1O	316	–
COC(=O)CCCNC(=O)c1cc(C)c(/C=C2\C(=O)Nc3ccccc32)[nH]1	50.1	–
COc1ccc(OC)c(/C=C2/C(=O)Nc3cc(Br)ccc32)c1 [drawing 164]	1	–
O=C1Nc2ccccc2/C1=C\c1cccc(F)c1	200	–
COc1ccc(OC)c(/C=C2/C(=O)Nc3ccc(C(F)(F)F)cc32)c1	631	–
COc1ccc(OC)c(/C=C2/C(=O)Nc3ccc(O)cc32)c1	200	–
COc1cc(/C=C2/C(=O)Nc3ccccc32)c(OCc2ccccc2)cc1OC	794	–
O=C1Nc2ccccc2/C1=C\c1c(-c2ccccc2)[nH]c2ccccc12	100	–
Cc1cc(C)c(/C=C2\C(=O)Nc3cccc(Cl)c32)[nH]1	1	–
Cc1[nH]c(/C=C2\C(=O)Nc3ccccc32)c(C)c1CCC(=O)O	50.1	–
O=C1Nc2ccccc2/C1=C\c1ccc2cc[nH]c2c1	6.31	–
COc1ccc(O)c(/C=C2/C(=O)Nc3ccccc32)c1	316	–
O=C1Nc2c(F)cccc2/C1=C/c1c[nH]c2ccccc12	0.316	–
Cc1[nH]c2ccccc2c1/C=C1/C(=O)Nc2ccccc21 [drawing 197]	794	–
O=C1Nc2ccccc2/C1=C\c1cc(O)ccc1O	100	–
COc1ccc(OC)c(/C=C2/C(=O)Nc3ccc(F)c(F)c32)c1	20	–
Cc1cc(CO)[nH]c1/C=C1\C(=O)Nc2ccccc21 [drawing 144]	39.8	–
COc1ccc(OC)c(/C=C2/C(=O)Nc3cc(Cl)ccc32)c1	31.6	–
O=C1Nc2ccccc2/C1=C\c1ccc(Cl)c(Cl)c1	1	–
Cc1ccc(/C=C2/C(=O)Nc3ccccc32)c(C)c1	1	–
COc1cc(/C=C2/C(=O)Nc3ccccc32)ccc1O	100	–
N#Cc1ccc2c(c1)/C(=C/c1c[nH]c3ccccc13)C(=O)N2	1	–
COc1cccc(/C=C2/C(=O)Nc3ccccc32)c1	6.31	–

Structure (SMILES)	IC50 [nM]	IL-2 pIC50
O=C(O)Cn1cc(/C=C2\C(=O)Nc3ccccc32)c2ccccc21 [drawing 229]	39.8	–
Cc1cc(C(=O)NCC2(c3ccc(Cl)cc3)CC2)[nH]c1/C=C1\C(=O)Nc2ccccc21	63.1	–
Cc1cc(C(=O)O)[nH]c1/C=C1\C(=O)Nc2ccccc21	200	–
Cn1cc(/C=C2\C(=O)Nc3ccccc32)c2ccccc21	2	–
O=C1Nc2ccccc2/C1=C\c1cc(-c2ccccc2)cs1	31.6	–
N#Cc1cccc2c1NC(=O)/C2=C\c1c[nH]c2ccccc12	1	–
Cc1[nH]c(/C=C2\C(=O)Nc3ccccc32)c(C)c1Br [drawing 211]	79.4	–
CCCn1cc(/C=C2\C(=O)Nc3ccccc32)c2ccccc21 [drawing 137]	0.2	–
COc1cc(OC)c(OC)cc1/C=C1/C(=O)Nc2ccccc21	2	–
COc1ccc(OC)c(/C=C2/C(=O)Nc3ccc(N)cc32)c1	–	6.5
O=C1Nc2c(Br)cccc2/C1=C/c1c[nH]c2ccccc12	0.2	–
O=C1Nc2ccccc2/C1=C/c1cn(Cc2ccccc2)c2ccccc12	3.98	–
COc1ccc(OC)c(/C=C2/C(=O)Nc3ccc(N)cc32)c1.CS(=O)(=O)O	–	7.2
Cc1cc(/C=C2/C(=O)Nc3ccccc32)sc1C	100	–
Cc1cc(C)c(/C=C2\C(=O)Nc3ccc(O)cc32)[nH]1	794	–
Cc1cc(C[n+]2ccccc2)[nH]c1/C=C1\C(=O)Nc2ccccc21	6.31	–
CON1C(=O)/C(=C\c2[nH]c(C)cc2C)c2ccccc21	10	–
O=C1Nc2ccccc2/C1=C/c1c[nH]c2ccc(OCc3ccccc3)cc12	10	–
COc1ccc(OC)c(/C=C2/C(=O)N(O)c3ccccc32)c1	10	–
O=CN1CCN(c2ccc(/C=C3\C(=O)Nc4ccccc43)cc2)CC1	316	–
COc1ccc(OC)c(/C=C2/C(=O)Nc3cc(S(C)(=O)=O)ccc32)c1	794	–
Cc1cc(C)c(/C(C(=O)OCc2ccccc2)=C2\C(=O)Nc3ccccc32)[nH]1	20	–
Cc1cc(C)c(/C=C2\C(=O)Nc3ccc(F)cc32)[nH]1	100	–
CCN(CC)CCNC(=O)c1cc(C)c(/C=C2\C(=O)Nc3ccccc32)[nH]1	39.8	–
Cc1ccc(/C=C2\C(=O)Nc3ccccc32)c(C)c1	631	–
COc1ccc(OC)c(/C=C2/C(=O)Nc3c(Br)cccc32)c1	10	–
O=C1Nc2cc(F)ccc2/C1=C/c1c[nH]c2ccccc12	3.16	–

Structure (SMILES)	IC50 [nM]	IL-2 pIC50
O=C1Nc2ccccc2/C1=C\c1ccc(Br)s1	20	–
COc1ccc(OC)c(/C=C2/C(=O)Nc3cc(C(F)(F)F)ccc32)c1	10	–
COc1ccc(OC)c(/C=C2\C(=O)Nc3ccc(Cl)cc32)c1	20	–
O=C1Nc2c(F)cc(F)cc2/C1=C/c1c[nH]c2ccccc12	2	–
COc1cc[nH]c1/C=C1\C(=O)Nc2ccc(Cl)cc21	50.1	–
Cc1cc(C(=O)NCCc2c[nH]c3ccccc23)[nH]c1/C=C1\C(=O)Nc2ccccc21	39.8	–
COc1ccc(OC)c(/C=C2/C(=O)Nc3ccc(Cl)cc32)c1	6.31	–
COc1ccc(OC)c(/C=C2/C(=O)Nc3c(C#N)cccc32)c1	31.6	–
O=C1Nc2ccc(O)cc2/C1=C/c1c[nH]c2ccccc12	79.4	–
O=C1Nc2ccccc2/C1=C/c1c[nH]c2ccc(F)cc12	100	–
O=C1Nc2ccccc2/C1=C\c1cc(Br)cs1	6.31	–
Cc1cc(C(=O)OCc2ccncc2)[nH]c1/C=C1\C(=O)Nc2ccccc21	31.6	–
O=C1Nc2ccccc2/C1=C\c1cc(Cl)cc(Cl)c1O	398	–
Cc1cc(C)c(/C=C2\C(=O)Nc3cccc(C(=O)O)c32)[nH]1	100	–
Cc1cc(C(=O)NCC2CCCCC2)[nH]c1/C=C1\C(=O)Nc2ccccc21	31.6	–
CCOc1ccc(OCC)c(/C=C2/C(=O)Nc3ccccc32)c1	631	–
CCn1c2ccccc2c2cc(/C=C3/C(=O)Nc4ccccc43)ccc21	200	–
Cc1cc(C(=O)NCCCCc2ccccc2)[nH]c1/C=C1\C(=O)Nc2ccccc21	100	–
O=C1Nc2ccccc2/C1=C/c1ccccc1F	63.1	–
O=C1Nc2ccccc2/C1=C/c1ccc(Cl)cc1	79.4	–
COc1cc[nH]c1/C=C1\C(=O)Nc2ccccc21	20	–
COc1ccc(/C=C2\C(=O)Nc3ccc(Cl)cc32)cc1	10	–
CCOC(=O)CCCNC(=O)c1cc(C)c(/C=C2\C(=O)Nc3ccccc32)[nH]1	39.8	–
COc1cc[nH]c1/C=C1\C(=O)Nc2cccc(Cl)c21	0.1	–
CN1CCN(c2c(/C=C3\C(=O)Nc4ccccc43)c3ccccc3n2C)CC1	79.4	–
Cc1cc(C(=O)NCCCCCCO)[nH]c1/C=C1\C(=O)Nc2ccccc21	100	–
O=C1Nc2cc(Br)ccc2/C1=C/c1c[nH]c2ccccc12	3.16	–

Structure (SMILES)	IC50 [nM]	IL-2 pIC50
COc1ccc(OC)c(/C=C2/C(=O)Nc3ccc(Br)cc32)c1	100	–
O=C1Nc2ccc(Br)cc2/C1=C/c1c[nH]c2ccccc12	2	–
O=C1Nc2ccccc2/C1=C\c1cc(Br)ccc1Br	39.8	–
Cc1cccc(/C=C2\C(=O)Nc3ccccc32)c1	631	–
Cc1cc(C(=O)NCCO)[nH]c1/C=C1\C(=O)Nc2ccccc21 [drawing 176]	31.6	–
Cn1cc(/C(C(=O)O)=C2\C(=O)Nc3ccccc32)c2ccccc21	794	–
COc1ccc(OC)c(/C=C2/C(=O)Nc3c(F)cccc32)c1	501	–
O=C(O)CCn1cc(/C=C2\C(=O)Nc3ccccc32)c2ccccc21	200	–
COc1ccc2[nH]cc(/C=C3\C(=O)Nc4ccccc43)c2c1	10	–
COc1ncc(/C=C2/C(=O)Nc3ccccc32)c(OC)n1	6.31	–
O=C1Nc2ccccc2/C1=C\c1ccc(-c2ccccc2)o1	3.98	–
Cc1[nH]c(/C=C2\C(=O)Nc3ccccc32)c(C)c1Cl	1	–
COc1ccc2c(/C=C3\C(=O)Nc4ccccc43)c[nH]c2c1	0.2	–
Cc1cc(C(=O)NCCCC2CCN(C=O)CC2)[nH]c1/C=C1\C(=O)Nc2ccccc21	50.1	–
O=C1Nc2ccccc2/C1=C\c1cc(Cl)ccc1Cl	3.16	–
O=C1Nc2ccccc2/C1=C/c1ccc(Cl)cc1Cl	200	–
Cc1cc(C(=O)NCCCCCO)[nH]c1/C=C1\C(=O)Nc2ccccc21	63.1	–
O=C1Nc2ccccc2/C1=C/c1c[nH]c2cccc(OCc3ccccc3)c12	100	–
COc1ccc(CN2C(=O)/C(=C\c3[nH]c(C)cc3C)c3ccccc32)cc1	31.6	–
CCOC(=O)c1cc(C)c(/C=C2\C(=O)Nc3ccccc32)[nH]1 [drawing 139]	10	–
Cc1cccc2c(/C=C3/C(=O)Nc4ccccc43)c[nH]c12	3.98	–
COc1ccc2c(/C=C3\C(=O)Nc4ccccc43)cn(C)c2c1	6.31	–
O=C1Nc2ccccc2/C1=C/c1c[nH]c2ccccc12	1	–
O=C1Nc2ccccc2/C1=C\c1ccoc1	631	–
